Assay results: PubChem BioAssay (NCI)
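The compound was tested at five concentrations on cells cultured in 96-well plates, with a 48-hour exposure period. At the GI50, growth is halved. The concentration for full growth arrest is given as TGI.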

How the values were obtained:
Test in all cases: growth of human tumour cells (NCI), 48 h
[1] = tested on: SK-MEL-28 melanoma
[2] = tested on: HOP-62 NSCLC
[3] = tested on: CAKI-1 renal
[4] = tested on: SK-MEL-5 melanoma
[5] = tested on: SNB-75 CNS
[6] = tested on: SF-539 CNS
[7] = tested on: HCT-15 colon
[8] = tested on: HT29 colon
[9] = tested on: HCC-2998 colon
[10] = tested on: UACC-62 melanoma
[11] = tested on: NCI-H226 lung
[12] = tested on: HS 578T breast
[13] = tested on: SNB-19 CNS
[14] = tested on: NCI-H522 lung
[15] = tested on: OVCAR-5 ovarian
[16] = tested on: EKVX NSCLC
[17] = tested on: NCI-H23 lung
[18] = tested on: HCT-116 colon
[19] = tested on: MALME-3M melanoma
[20] = tested on: A549 NSCLC
[21] = tested on: DU-145 prostate
[22] = tested on: TK-10 renal
[23] = tested on: MCF7 breast
[24] = tested on: PC-3 prostate
[25] = tested on: OVCAR-3 ovarian
[26] = tested on: UO-31 renal
[27] = tested on: SK-MEL-2 melanoma
[28] = tested on: M14 melanoma
[29] = tested on: SF-268 CNS
[30] = tested on: RPMI-8226 leukemia
[31] = tested on: HOP-92 NSCLC
[32] = tested on: SF-295 CNS
[33] = tested on: OVCAR-4 ovarian
[34] = tested on: ACHN renal
[35] = tested on: MDA-MB-435
[36] = tested on: LOX IMVI melanoma
[37] = tested on: CCRF-CEM leukemia
[38] = tested on: OVCAR-8 ovarian
[39] = tested on: UACC-257 melanoma
[40] = tested on: A498 renal
[41] = tested on: NCI/ADR-RES ovarian
[42] = tested on: NCI-H460 lung
[43] = tested on: RXF 393 renal
[44] = tested on: COLO 205 colon
[45] = tested on: MOLT-4 leukemia
[46] = tested on: SN12C renal
[47] = tested on: SK-OV-3 ovarian
[48] = tested on: T-47D breast
[49] = tested on: 786-0 renal
[50] = tested on: KM12 colon
[51] = tested on: SW-620 colon
[52] = tested on: HL-60(TB) leukemia
[53] = tested on: IGROV1 ovarian
[54] = tested on: U251 CNS
[55] = tested on: MDA-MB-231 breast
[56] = tested on: BT-549 breast
[57] = tested on: SR leukemia

## Cc1ccc2cc3c(N)c4c(C)ccc(C)c4nc3nc2c1
[1]
  GI50: 13.7 µM
  TGI: 28.5 µM
[2]
  GI50: 9.79 µM
  TGI: 25.5 µM
[3]
  GI50: 10.2 µM
  TGI: 22 µM
[4]
  GI50: 8.14 µM
  TGI: 21 µM
[5]
  GI50: 5.97 µM
  TGI: 20.7 µM
[6]
  GI50: 7.97 µM
  TGI: 23.1 µM
[7]
  GI50: 1.33 µM
  TGI: 10.3 µM
[8]
  GI50: 2.89 µM
  TGI: 12.9 µM
[9]
  GI50: 4.26 µM
  TGI: 14.8 µM
[10]
  GI50: 7.72 µM
  TGI: 22 µM
[11]
  GI50: 13.1 µM
  TGI: 29.5 µM
[12]
  GI50: 12.8 µM
  TGI: 34.5 µM
[13]
  GI50: 7.02 µM
  TGI: 23.8 µM
[14]
  GI50: 3.74 µM
  TGI: 20.7 µM
[15]
  GI50: 1.99 µM
  TGI: 5.05 µM
[16]
  GI50: 8.04 µM
  TGI: 21.4 µM
[17]
  GI50: 11.6 µM
  TGI: 28.6 µM
[18]
  GI50: 1.68 µM
  TGI: 3.27 µM
[19]
  GI50: 17.7 µM
  TGI: 36.1 µM
[20]
  GI50: 1.85 µM
  TGI: 3.44 µM
[21]
  GI50: 5.82 µM
  TGI: 18.6 µM
[22]
  GI50: 12.2 µM
  TGI: 25.5 µM
[23]
  GI50: 1.44 µM
  TGI: 2.98 µM
[24]
  GI50: 6.89 µM
  TGI: 21.6 µM
[25]
  GI50: 6.12 µM
  TGI: 21.1 µM
[26]
  GI50: 3.6 µM
  TGI: 19.6 µM
[27]
  GI50: 14 µM
  TGI: 29.3 µM
[28]
  GI50: 12.4 µM
  TGI: 26.7 µM
[29]
  GI50: 11.8 µM
  TGI: 25.8 µM
[30]
  GI50: 2.02 µM
  TGI: 5.27 µM
[31]
  GI50: 1.87 µM
  TGI: 16.5 µM
[32]
  GI50: 1.66 µM
  TGI: 3.05 µM
[33]
  GI50: 3.79 µM
  TGI: 14.8 µM
[34]
  GI50: 2.68 µM
  TGI: 13.2 µM
[35]
  GI50: 10.9 µM
  TGI: 23.4 µM
[36]
  GI50: 1.65 µM
  TGI: 3.4 µM
[37]
  GI50: 4.04 µM
  TGI: 36.8 µM
[38]
  GI50: 5.64 µM
  TGI: 23.5 µM
[39]
  GI50: 14.2 µM
  TGI: 28.6 µM
[40]
  GI50: 11.9 µM
  TGI: 25.1 µM
[41]
  GI50: 2.95 µM
  TGI: 16.7 µM
[42]
  GI50: 1.84 µM
  TGI: 3.77 µM
[43]
  GI50: 1.8 µM
  TGI: 3.62 µM
[44]
  GI50: 5.77 µM
  TGI: 20 µM
[45]
  GI50: 3.49 µM
  TGI: 21.7 µM
[46]
  GI50: 6.75 µM
  TGI: 21 µM
[47]
  GI50: 11.4 µM
  TGI: 24 µM
[48]
  GI50: 2.14 µM
  TGI: 6.1 µM
[49]
  GI50: 6.72 µM
  TGI: 20.5 µM
[50]
  GI50: 2.12 µM
  TGI: 16.9 µM
[51]
  GI50: 2.81 µM
  TGI: 15.3 µM
[52]
  GI50: 18.7 µM
  TGI: 40.8 µM
[53]
  GI50: 6.73 µM
  TGI: 22.3 µM
[54]
  GI50: 4.58 µM
  TGI: 18.1 µM
[55]
  GI50: 3.17 µM
  TGI: 20.4 µM
[56]
  GI50: 14.8 µM
  TGI: 29.7 µM
[57]
  GI50: 2.3 µM
  TGI: 7.33 µM

## Clc1ccc(-c2ccc(CNCC3CCNCC3)o2)c(-c2ccccc2)c1
[1]
  GI50: 1.79 µM
  TGI: 3.27 µM
[2]
  GI50: 1.65 µM
  TGI: 3.27 µM
[3]
  GI50: 1.51 µM
  TGI: 2.9 µM
[4]
  GI50: 1.66 µM
  TGI: 3.05 µM
[5]
  GI50: 1.39 µM
  TGI: 2.81 µM
[6]
  GI50: 1.65 µM
  TGI: 3.12 µM
[7]
  GI50: 1.19 µM
  TGI: 2.6 µM
[8]
  GI50: 1.44 µM
  TGI: 2.89 µM
[9]
  GI50: 1.62 µM
  TGI: 3.2 µM
[10]
  GI50: 1.75 µM
  TGI: 3.27 µM
[11]
  GI50: 1.66 µM
  TGI: 3.68 µM
[12]
  GI50: 1.63 µM
  TGI: 3.42 µM
[13]
  GI50: 1.64 µM
  TGI: 3.16 µM
[14]
  GI50: 1.85 µM
  TGI: 3.63 µM
[15]
  GI50: 1.61 µM
  TGI: 3.04 µM
[16]
  GI50: 1.59 µM
  TGI: 2.95 µM
[17]
  GI50: 1.71 µM
  TGI: 3.32 µM
[18]
  GI50: 1.24 µM
  TGI: 2.54 µM
[19]
  GI50: 1.88 µM
  TGI: 3.54 µM
[20]
  GI50: 1.79 µM
  TGI: 3.56 µM
[21]
  GI50: 1.82 µM
  TGI: 3.33 µM
[22]
  GI50: 1.62 µM
  TGI: 3.13 µM
[23]
  GI50: 1.56 µM
  TGI: 3.3 µM
[24]
  GI50: 1.38 µM
  TGI: 2.76 µM
[25]
  GI50: 1.74 µM
  TGI: 3.46 µM
[26]
  GI50: 1.37 µM
  TGI: 2.76 µM
[27]
  GI50: 1.76 µM
  TGI: 3.31 µM
[28]
  GI50: 1.63 µM
  TGI: 3.11 µM
[29]
  GI50: 1.62 µM
  TGI: 3.27 µM
[30]
  GI50: 1.3 µM
  TGI: 3.19 µM
[31]
  GI50: 1.01 µM
  TGI: 2.23 µM
[32]
  GI50: 1.57 µM
  TGI: 3 µM
[33]
  GI50: 1.85 µM
  TGI: 3.54 µM
[34]
  GI50: 1.67 µM
  TGI: 3.06 µM
[35]
  GI50: 1.61 µM
  TGI: 3.05 µM
[36]
  GI50: 1.54 µM
  TGI: 3.03 µM
[37]
  GI50: 0.557 µM
  TGI: 2.31 µM
[38]
  GI50: 1.87 µM
  TGI: 3.5 µM
[39]
  GI50: 2.03 µM
  TGI: 3.57 µM
[40]
  GI50: 1.71 µM
  TGI: 3.24 µM
[41]
  GI50: 1.71 µM
  TGI: 3.3 µM
[42]
  GI50: 1.71 µM
  TGI: 3.33 µM
[43]
  GI50: 1.36 µM
  TGI: 2.79 µM
[44]
  GI50: 1.64 µM
  TGI: 3.36 µM
[45]
  GI50: 1.54 µM
  TGI: 3.42 µM
[46]
  GI50: 1.54 µM
  TGI: 3.03 µM
[47]
  GI50: 1.87 µM
  TGI: 3.33 µM
[48]
  GI50: 1.74 µM
  TGI: 3.82 µM
[49]
  GI50: 1.58 µM
  TGI: 3.01 µM
[50]
  GI50: 1.79 µM
  TGI: 3.62 µM
[51]
  GI50: 1.38 µM
  TGI: 2.96 µM
[52]
  GI50: 1.8 µM
  TGI: 3.69 µM
[53]
  GI50: 1.39 µM
  TGI: 2.93 µM
[54]
  GI50: 1.56 µM
  TGI: 3.01 µM
[55]
  GI50: 1.36 µM
  TGI: 2.85 µM
[56]
  GI50: 1.71 µM
  TGI: 3.2 µM
[57]
  GI50: 0.347 µM
  TGI: 1.27 µM
